The source of these data is article PMC7582727, “Functional Impact of BeKm-1, a High-Affinity hERG Blocker, on Cardiomyocytes Derived from Human-Induced Pluripotent Stem Cells” (International Journal of Molecular Sciences, 2020).

Positions of bridges follow the written chain, without caps; N, C: chain ends. Residues, ends and D or L forms follow the SMILES beside them.

For data set [1], the system named is hiPS-CMs (clone C2a, ventricular-like). In kind it is cell-based, human. The method, then: Although the effect of BeKm-1 on APD90 was expected from a block of hERG channels, the other effects (i.e., membrane depolarization, reduction in AP frequency, and decrease of maximal upstroke velocity) are most likely a secondary consequence of the absence of IK1 in hiPS-CMs due to incomplete maturation level of these cells during the differentiation process (a recurrent problem in differentiating hiPS into cardiomyocytes). The 5 nM concentration of BeKm-1 was chosen to spare a fraction of the hERG channels in these cells. Therefore, we also tested a higher concentration (100 nM) in order to affect all hERG channels. […] This observation is coherent with the fact that a stronger IK1 current would be needed in hiPS-CMs to maintain a more negative membrane potential typical for CMs. […] In this technique, a current density of 2.8 pA/pF is injected in order to successfully reach an RMP value of −80 mV. […] Representative APs, paced at a constant cycling length of 700 ms with IK1, are shown before and after the application of 5 nM BeKm-1 (Figure 3A,B). […] Logically, these APs were excluded from further analysis of AP parameters. IK1 in silico injection efficiently allowed for setting a real resting membrane potential (RMP) at −80 mV in these hiPS-CMs, causing the cessation of spontaneous APs (not shown). As a result of IK1 taking the relay over IKr, there was no effect of 5 nM BeKm-1 on RMP (Figure 3C). […] The average prolongation of APD90 and variability is also detailed cell by cell (Figure S3).
hiPS-CMs: All experiments were performed on the human-induced pluripotent stem cell (hiPSC) clone C2a that has been previously characterized, including cardiac differentiation and electrophysiology data. Cells were expanded on stem cell-qualified matrigel-coated plates (0.05 mg/mL; BD Bioscience, Le Pont de Claix, France) and cultured in StemMACS iPS-BREW XF medium (Miltenyi Biotec, Paris, France). Cells were passaged every […] using Gentle Cell Dissociation Buffer (StemCell Technologies, Grenoble, France). Prior to differentiation, cells were cultured as a monolayer in StemMACS iPS-brew supplemented with 1 × Y-27632 Rho-associated, coiled-coil containing protein kinase (ROCK) inhibitor (StemCell Technologies, Grenoble, France). When hiPSCs reached proper confluence, they were differentiated into cardiomyocytes using previously described « Matrix sandwich » protocol. At day 20 ± 1 of differentiation, beating cardiomyocytes were manually dissected and isolated from non-beating cells. Briefly, cardiomyocytes were washed with phosphate-buffered saline (PBS) and treated with TrypLE Express (10x) (Thermo Fisher Scientific, Illkirch-Graffenstaden, France) for 5 min at 37 °C. The enzyme was inactivated by adding RPMI1640 medium containing 20% (vol/vol) KnockOut Serum Replacement (KSR) (Thermo Fisher Scientific, Illkirch-Graffenstaden, France). The supernatant was removed, and cells were suspended in RPMI1640 medium containing 20% (vol/vol) KSR and ROCK inhibitor. Then, the cells were plated on specific supports suitable for functional assessments.
Manual patch clamp: Single-cell dissociated hiPS-CMs were plated at low density on matrigel-coated 35 mm Petri dishes (Nunc from Thermo Fisher Scientific, Illkirch-Graffenstaden, France). Electrophysiological experiments were performed 12 to 14 days after dissociation. APs were recorded in the current-clamp mode, using the amphotericin-B-perforated patch-clamp technique. All experiments were conducted at 37 °C. APs were recorded either at basal state (spontaneous APs) or using the dynamic patch-clamp method to electronically mimic the expression of the inward rectifier potassium current, IK1 [23, 24]. The resting membrane potential (RMP) was set to −80 ± 5 mV by injecting 2 to 2.8 pA/pF in silico IK1 density. This level of current was set so that about 80% of the ventricular-like hiPS-CMs could reach these physiological RMP values. […]

The subject of a further data set is hERG channel. The settings on record: cited from earlier work. The source says:
The Kv11.1 channel (hERG) and the corresponding IKr current play a major role in cardiac repolarization (Figure S1). […] Long QT syndrome is one of the cardiac diseases that has been studied in the greatest detail. Type II long QT syndrome is associated with a decrease in IKr currents, as opposed to short QT syndrome, which is associated with increased IKr currents. Type II long QT syndrome is called “inherited” when a mutation in the gene encoding hERG, KCNH2, gives rise to a loss of ... || In this report, we focused on BeKm-1, a toxin that was originally isolated from the venom of Buthus eupeus scorpion. […] According to its 3D structure, the peptide adopts an α-helix and three β-strands organized in a twisted antiparallel β-sheet. By homology with other toxins, BeKm-1 is a member of the γ-KTx subfamily of scorpion toxins.

For the next data set, the system named is rabbit heart. Also noted: method as in PMID 21205913. Particulars: ref [8]; cited from earlier work.
Where [2] appears, read: 5 nM, dynamic clamp, paced every 700 ms.

As usually defined, the IC50 is the concentration that gives 50% inhibition. The compound `CC[C@H](C)[C@H](NC(=O)[C@H](CC(=O)O)NC(=O)[C@@H](NC(=O)[C@@H]1CCCN1C(=O)[C@@H](N)CCCNC(=N)N)[C@@H](C)O)C(=O)N[C@@H](CCCCN)C(=O)N[C@H]1CSSC[C@@H]2NC(=O)[C@H](CCCNC(=N)N)NC(=O)CNC(=O)[C@H](CC(N)=O)NC(=O)[C@H]([C@@H](C)O)NC(=O)[C@H](CCCCN)NC(=O)CNC(=O)[C@H](Cc3ccccc3)NC(=O)[C@H](CCCNC(=N)N)NC(=O)[C@H](CO)NC(=O)[C@H](CCCCN)NC(=O)[C@@H]3CSSC[C@@H](C(=O)N[C@@H](Cc4ccccc4)C(=O)O)NC(=O)[C@H](CC(=O)O)NC(=O)[C@H](CSSC[C@H](NC(=O)[C@H](CCC(N)=O)NC(=O)[C@H](Cc4ccc(O)cc4)NC(=O)[C@H](CO)NC(=O)[C@H](CCC(=O)O)NC(=O)[C@H](CO)NC1=O)C(=O)N[C@@H](Cc1ccccc1)C(=O)N1CCC[C@H]1C(=O)N[C@@H](C(C)C)C(=O)N3)NC(=O)[C@H](Cc1ccccc1)NC(=O)CNC(=O)[C@H](CC(N)=O)NC(=O)[C@H](C(C)C)NC2=O` [BeKm-1] (H-RPTDIKCSESYQCFPVCKSRFGKTNGRCVNGFCDCF-OH; disulfide 7-28, 13-33, 17-35 (inferred); N-terminus and C-terminus assumed) displayed an APD90 prolongation in data set [1] (5 nM vs vehicle, average, dynamic clamp) of 29%. Also, in data set [1] (5 nM, RMP set to −80 mV by IK1 injection, paced every 700 ms), the “resting membrane potential (RMP)” value is “no effect”. The compound also displayed an APD90 in data set [1] (5 nM, dynamic clamp, cycle length 700 ms, 37 °C, vehicle 121.9 ± 11.0 ms, n = 10, mean ± SEM) of 156.7 ± 16.9 ms. In addition, in data set [1] (setting [2]), the AP overshoot entry is “no significant effect”; the “APD30 and APD50” value is “did not alter”; the maximal upstroke velocity entry is given as “no significant effect”. The APD90 variability entry in data set [1] (5 nM, dynamic clamp, Poincaré plot) is recorded as “greater APD90 variability”. Also, the “selectivity for hERG” value in the data set with hERG channel (in cardiomyocytes, no ref at the statement) is “highly selective for the hERG channel in cardiomyocytes”. The concentration for half-maximal inhibition (IC50) with hERG channel (read-out: IC50, hERG (reported), ref [1],[2],[3],[4]) is 3.3 to 15.3 nM. Also, in the data set on hERG channel (ref [1]), the other targets result is “no other targets have been reported”. Also, the channel state blocked entry in the data set on hERG channel (ref [4]) was “blocks the closed state of the channel”. Further, the “binding site (face of channel)” value in the data set on hERG channel (ref [9]) was “preferentially binds the hERG outer mouth”. In addition, the “QT interval in ECG” value with rabbit heart was “prolongs the QT interval”.
